Source: patent US5840917A, “Phosphorylamides, their preparation and use” (Takeda Chemical Industries, Ltd., priority 1995, dated 1998)

Target: T1, Helicobacter pylori-derived urease (Helicobacter pylori, UniProt P69996)
T1 construct: an urease solution prepared from Helicobacter pylori; endogenous in cells
Assay: Screening of urease inhibitors (ammonia yield from urea)
Format: biochemical
Protocol: Screening of Urease Inhibitors
One hundred (100) μl of 100 mM Bis-Tris buffer (pH 6.5) and 60 μl of an urease solution prepared from Helicobacter pylori were added to 20 μl of a test drug dissolved in 0.1% dimethylformamide solution. The mixture was incubated at room temperature for 30 minutes, and then 20 μl of 100 mM urea was added. The mixture was kept at room temperature for 10 minutes, and then the yielded ammonia in the incubation mixture was measured using a commercial test kit (Ammonia Test Wako®; Wako Pure Chemical). The percent inhibition against the yield of ammonia in the solvent addition group was calculated to obtain the IC50 value.

T1 sequence (P69996 whole entry, looked up): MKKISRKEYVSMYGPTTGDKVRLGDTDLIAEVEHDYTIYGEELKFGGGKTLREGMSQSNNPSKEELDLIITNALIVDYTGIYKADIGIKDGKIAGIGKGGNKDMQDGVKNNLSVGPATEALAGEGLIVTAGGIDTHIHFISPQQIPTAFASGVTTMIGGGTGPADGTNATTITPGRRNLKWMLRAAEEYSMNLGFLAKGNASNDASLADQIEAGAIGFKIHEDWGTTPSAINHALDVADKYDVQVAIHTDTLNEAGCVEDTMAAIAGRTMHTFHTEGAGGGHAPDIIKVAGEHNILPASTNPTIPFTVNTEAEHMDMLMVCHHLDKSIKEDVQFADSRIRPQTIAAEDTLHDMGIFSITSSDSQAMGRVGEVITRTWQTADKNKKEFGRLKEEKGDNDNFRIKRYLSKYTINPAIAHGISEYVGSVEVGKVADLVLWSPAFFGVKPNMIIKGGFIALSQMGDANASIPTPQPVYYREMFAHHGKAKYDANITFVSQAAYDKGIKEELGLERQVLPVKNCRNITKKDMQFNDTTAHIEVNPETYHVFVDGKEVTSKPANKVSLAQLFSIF

Structure (SMILES)	IC50 [nM]
NP(N)(=O)NC(=O)c1cccs1 [Example 1, N-(Diaminophosphinyl)-2-thiophenecarboxamide]	1.2
Cc1ccsc1C(=O)NP(N)(N)=O [Example 4, N-(Diaminophosphinyl)-3-methyl-2-thiophenecarboxamide]	6.8
NP(N)(=O)NC(=O)c1ccc(Br)s1 [Example 6, N-(Diaminophosphinyl)-5-bromo-2-thiophenecarboxamide]	3.5
NP(N)(=O)NC(=O)c1cc(Br)c(Br)s1 [Example 7, N-(Diaminophosphinyl)-4,5-dibromo-2-thiophenecarboxamide]	4.3
NP(N)(=O)NC(=O)c1cc(Br)cs1 [Example 8, N-(Diaminophosphinyl)-4-bromo-thiophenecarboxamide]	4.3
NP(N)(=O)NC(=O)c1ccc([N+](=O)[O-])s1 [Example 10, N-(Diaminophosphinyl)-5-nitro-thiophenecarboxamide]	3.6
NP(N)(=O)NC(=O)c1ccc(C(F)F)s1 [Example 13, N-(Diaminophosphinyl)-5-difluoromethyl-2-thiophenecarboxamide]	5.2
NP(N)(=O)NC(=O)c1sccc1Cl [Example 14, N-(Diaminophosphinyl)-3-chloro-2-thiophenecarboxamide]	1.1
NP(N)(=O)NC(=O)c1sccc1Br [Example 16, N-(Diaminophosphinyl)-3-bromo-2-thiophenecarboxamide]	0.8
CS(=O)(=O)c1ccc(C(=O)NP(N)(N)=O)s1 [Example 18, N-(Diaminophosphinyl)-5-methanesulfonyl-2-thiophenecarboxamide]	11
NP(N)(=O)NC(=O)c1ccsc1C(F)F [Example 20, N-(Diaminophosphinyl)-2-difluoromethyl-3-thiophenecarboxamide]	2.5
NP(N)(=O)NC(=O)c1csc([N+](=O)[O-])c1 [Example 21, N-(Diaminophosphinyl)-5-nitro-3-thiophenecarboxamide]	4.3
COc1ccc(C(=O)NP(N)(N)=O)s1 [Example 22, N-(Diaminophosphinyl)-5-methoxy-2-thiophenecarboxamide]	12
COc1csc(C(=O)NP(N)(N)=O)c1 [Example 24, N-(Diaminophosphinyl)-4-methoxy-2-thiophenecarboxamide]	9.1
CCc1ccsc1C(=O)NP(N)(N)=O [Example 27, N-(Diaminophosphinyl)-3-ethyl-2-thiophenecarboxamide]	4.1
Cc1cc(C(=O)NP(N)(N)=O)sc1Br [Example 29, N-(Diaminophosphinyl)-5-bromo-4-methyl-2-thiophenecarboxamide]	8.1
NP(N)(=O)NC(=O)c1csc(C(F)F)c1 [Example 31, N-(Diaminophosphinyl)-5-difluoromethyl-3-thiophenecarboxamide]	7.1
Cc1sc(Cl)cc1C(=O)NP(N)(N)=O [Example 33, N-(Diaminophosphinyl)-5-chloro-2-methyl-3-thiophenecarboxamide]	1.9
Cc1sc(C(=O)NP(N)(N)=O)cc1Cl [Example 34, N-(Diaminophosphinyl)-4-chloro-5-methyl-2-thiophenecarboxamide]	12
Cc1cc(C(=O)NP(N)(N)=O)sc1Cl [Example 35, N-(Diaminophosphinyl)-5-chloro-4-methyl-2-thiophenecarboxamide]	11
NP(N)(=O)NC(=O)c1cc(Cl)c(Cl)s1 [Example 36, N-(Diaminophosphinyl)-4,5-dichloro-2-thiophenecarboxamide]	7.4
NP(N)(=O)NC(=O)c1cscc1Br [Example 37, N-(Diaminophosphinyl)-4-bromo-3-thiophenecarboxamide]	1.8

Structure (SMILES)	IC50 [nM]
NP(N)(=O)NC(=O)c1ccsc1Cl [Example 38, N-(Diaminophosphinyl)-2-chloro-3-thiophenecarboxamide]	1.7
NP(N)(=O)NC(=O)c1ccc(Br)o1 [Example 39, N-(Diaminophosphinyl)-5-bromo-2-furancarboxamide]	2.2
NP(N)(=O)NC(=O)c1ccc(Cl)o1 [Example 42, N-(Diaminophosphinyl)-5-chloro-2-furancarboxamide]	2.3
Cc1ccc(C(=O)NP(N)(N)=O)o1 [Example 43, N-(Diaminophosphinyl)-5-methyl-2-furancarboxamide]	6.2
NP(N)(=O)NC(=O)c1ccc(C(F)F)o1 [Example 47, N-(Diaminophosphinyl)-5-difluoromethyl-2-furancarboxamide]	1.9
Cc1cc(C(=O)NP(N)(N)=O)c(C(F)(F)F)o1 [Example 48, N-(Diaminophosphinyl)-2-trifluoromethyl-5-methyl-3-furancarboxamide]	8.3
Cc1cc(C(=O)NP(N)(N)=O)c(C)o1 [Example 49]	27
Cc1oc(Cl)cc1C(=O)NP(N)(N)=O [Example 50, N-(Diaminophosphinyl)-5-chloro-2-methyl-3-furancarboxamide]	7.5
CCc1occc1C(=O)NP(N)(N)=O [Example 51, N-(Diaminophosphinyl)-2-ethyl-3-furancarboxamide]	22
NP(N)(=O)NC(=O)COc1ccc([N+](=O)[O-])cc1 [Example 52, N-(Diaminophosphinyl)-4-nitrophenoxyacetamide]	12
COc1ccc(OCC(=O)NP(N)(N)=O)cc1 [Example 53, N-(Diaminophosphinyl)-4-methoxyphenoxyacetamide]	7.9
NP(N)(=O)NC(=O)COc1ccc(Cl)cc1 [Example 55, N-(Diaminophosphinyl)-4-chlorophenoxyacetamide]	3
Cc1cc(C)c(C)c(OCC(=O)NP(N)(N)=O)c1 [Example 56, N-(Diaminophosphinyl)-2,3,5-trimethylphenoxyacetamide]	41
N#Cc1ccc(OCC(=O)NP(N)(N)=O)cc1 [Example 57, N-(Diaminophosphinyl)-4-cyanophenoxyacetamide]	7.5
NP(N)(=O)NC(=O)COc1cccc(Cl)c1 [Example 58, N-(Diaminophosphinyl)-3-chlorophenoxyacetamide]	3
NP(N)(=O)NC(=O)COc1ccccc1Cl [Example 59, N-(Diaminophosphinyl)-2-chlorophenoxyacetamide]	5.4
NP(N)(=O)NC(=O)COc1cccc(F)c1 [Example 60, N-(Diaminophosphinyl)-3-fluorophenoxyacetamide]	3.6
NP(N)(=O)NC(=O)CSc1ccccc1 [Example 61, N-(Diaminophosphinyl)-phenylthioacetamide]	2.8
NP(N)(=O)NC(=O)CSc1ccc(F)cc1 [Example 62, N-(Diaminophosphinyl)-4-fluorophenylthioacetamide]	2.8
NP(N)(=O)NC(=O)CSc1nc2ccccc2o1 [Example 63, N-(Diaminophosphinyl)-2-benzoxazolylthioacetamide]	5.6
NP(N)(=O)NC(=O)CSc1nc2ccccc2s1 [Example 64, N-(Diaminophosphinyl)-2-benzothiazolylthioacetamide]	2.9
NP(N)(=O)NC(=O)CSc1nc2cc(Cl)ccc2s1 [Example 65, N-(Diaminophosphinyl)-5-chloro-2-benzothiazolylthioacetamide]	2.3
